The results in this text go back to patent publication US8093209B2, “Methods of suppressing microglial activation and systemic inflammatory responses” (Cognosci, Incorporated, priority 2002, dated 2012).

Assay [1] concerns thioglycollate-elicited peritoneal macrophages. Nature of the assay: [Ca2+]i in Fura-2/AM treated single macrophages, digital imaging microscopy (Example 10). It is filed as cell-based, mouse. As to conditions: for increase in [Ca2+]i levels compared to buffer: macrophage. How it is done: (§1) Macrophage Harvesting. All experiments involving animals were first approved by the Duke Institutional Animal Care and Use Committee. Pathogen-free female C57BL/6 mice and ApoE deficient mice previously backcrossed 10 times to the C57BL/6 strain were obtained from the Jackson Laboratory (Bar Harbor, Me.). Thioglycollate-elicited peritoneal macrophages were harvested by peritoneal lavage using 10 ml of ice-cold Hanks' balanced salt solution containing 10 mM HEPES and 3.5 mM NaHCO3 (HHBSS), pH 7.4. The macrophages were pelleted by centrifugation at 4° C. at ˜800×g for 10 min and resuspended in RPMI 1640 media supplemented with 25 mM HEPES, 12.5 U/ml penicillin, 6.5 mg/ml streptomycin, and 5% fetal bovine serum.
Measurement of [Ca^2+]i in apoE and peptide treated macrophage. Changes in [Ca^2+]i levels in Fura-2/AM treated single cells were quantified using digital imaging microscopy in accordance with known techniques. Macrophages were plated on glass coverslips sitting in 35 mm Petri dishes at a density of 1.5×10^5 cells/cm^2, and allowed to adhere for 2 h in a humidified 5% CO2 incubator at 37° C. The non-adherent cells were aspirated and the monolayers were washed twice with HHBSS. 4 μM Fura-2/AM was incubated with the cells for thirty min in the dark at room temperature and [Ca^2+]i was subsequently measured using a digital imaging microscope in accordance with known techniques. […] To determine if signaling resulted from ligation of the ligand to LRP, cells were preincubated with a 1000-fold molar excess of RAP or 10 mM NiCl2, both of which inhibit ligand binding to LRP, for 5 min prior to stimulation with apoE or peptide. In experiments in which the involvement of a G protein was assessed, monolayers were incubated with 1 μg/ml pertussis toxin for 12 h at 37° C. and Ca^2+ measurements were made as stated above.

The test system is the same in assay [2]. Kind of assay: IP3 formation in myo-[2-3H]inositol-labeled macrophages (Example 10). Type of assay: cell-based, mouse. How it is done:
as §1, with “serum. Cell viability was determined by the trypan blue exclusion method and was consistently greater then 95%.” for “serum.”
Measurement of IP3 in apoE treated macrophage and effect of pertussis toxin. The formation of IP3 in myo-[2-^3H]inositol-labeled macrophages under various experimental conditions was quantified in accordance with known techniques. Macrophage were plated in 6 well plates (4×10^6 cells/well) and allowed to adhere at 37° C. for 2 h in a humidified 5% CO2 incubator. Medium was aspirated from the monolayers and RPMI 1640 medium containing 0.25% BSA and myo-[2-^3H]inositol (specific activity 10-20 Ci/mmol) was added to each well. […] Radioactivity was determined by placing aliquots in a liquid scintillation counter to determine radioactivity. […] The effect on IP3 formation was measured as described above.

Assay [3] has the same test system. Kind of assay: Competition between apoE and apoE mimetic peptide: [Ca2+]i on sequential stimulation. It is filed as cell-based, mouse. How it is done:
Fura-2/AM loaded macrophages were incubated overnight, plated on glass cover slips, stimulated with one ligand, and changes in [Ca^2+]i quantified. Cells were then stimulated with second ligand and Ca^2+ measurements repeated.

The subject of assay [4] is primary rat neuronal/glial cultures exposed to NMDA. Nature of the assay: NMDA-induced LDH release in primary neuronal-glial cultures. Type of assay: cell-based. As to conditions: peptide 0.3-10 μM, 100 μM NMDA. How it is done:
(§2) Primary neuronal-glial cultures were prepared from fetal Sprague-Dawley rat brains at 18 days of gestation as previously described (Pearlstein et al., 1998). Brains were harvested from 10-15 pups and dissected to separate cortex from meninges and subcortical structures using anatomical landmarks. Cortices were pooled and minced into 2 mm^3 pieces in a buffered salt solution supplemented with 20 mM HEPES buffer, pH 7.4, containing 0.25% trypsin. The tissue was incubated for 20 minutes at 37° C. in a 5% CO2/95% room air atmosphere, and washed twice with ice-cold, glutamine-free minimum essential medium (MEM; Life Technologies) containing 15 mM glucose, 5% fetal bovine serum (GIBCO), 5% horse serum (GIBCO), and 1% DNase-I (Sigma Chemical Co., St. Louis, Mo., USA). Tissue pieces were dissociated by trituration through a fire-polished 9-inch Pasteur pipette (I.D.=0.7 mm). The resultant suspension was centrifuged at 50×g for 10 min, the supernatant discarded, and the pellet resuspended in growth medium (MEM supplemented with 15 mM glucose, 5% fetal bovine serum, and 5% horse serum). The dissociated cells were plated to achieve a confluent monolayer using 4×10^5 cells per well in poly-D-lysine coated, 24-well culture plates (Falcon 3047; Becton Dickinson Co., Lincoln Park, N.J., USA). Cultures were maintained undisturbed at 37° C. in a humidified 5% CO2/95% room air atmosphere for 13-16 days prior to use.
Mature cultures (13-16 days in vitro) were washed with Mg^2+-free buffered salt solution (BSS) containing 20 mM HEPES buffer (pH7.4) and 1.8 mM CaCl2, prior to the addition of NMDA. Following NMDA exposure, cultures were maintained for 30 minutes at 37° C. in a 5% CO2/95% air atmosphere. The medium containing NMDA was then removed and replaced with MEM supplemented with 20 mM glucose. The cultures were returned to the incubator for 24 h. In all experiments, cellular damage was assessed at 24 h after exposure to NMDA by measurement of the activity of lactate dehydrogenase (LDH) released into the medium as described below. The non-competitive NMDA receptor antagonist, MK-801 (Tocris Cookson Ins., St. Louis, Mo.) at a concentration of 10 μM was used as a positive control. Preliminary dose-response studies were performed to determine the concentration of NMDA (100 μM) required to effect a near-maximal LDH release (ED90) as used in the present study.
The effect of human recombinant apoE (Panverra, Madison, Wis.) on 100 μM NMDA-induced LDH release was assessed and the dose-response curve was obtained (apoE: 0.1-10 μM final concentration). ApoE3, the most common human isoform, was added to the cultures 30 minutes prior to and removed following NMDA exposure. The effect of apoE peptide (133-149) on NMDA (100 μM or 300 μM)-induced LDH release was next assessed and the dose-response curve was obtained in a separate set of sister cultures that were simultaneously treated under one of the following conditions: (1) various doses of peptide (0.3 μM, 1 μM, 3 μM, 6 μM, 10 μM final concentration) were added to the culture immediately prior to and removed at the end of NMDA exposure; (2) no peptide, NMDA exposure; (3) no peptide, no NMDA exposure; (4) no peptide, NMDA exposure with 10 μM MK-801 for 30 minutes. The effect of a scrambled control peptide on NMDA-induced LDH release was similarly assessed.
The effect of time of administration of apoE peptide (133-149) on NMDA-induced LDH release was assessed in a separate set of sister cultures that were simultaneously treated under one of following conditions: (1) peptide was added to the culture medium 24 h prior to and removed immediately before exposure to NMDA; (2) peptide was added immediately prior to and removed at the end of the NMDA exposure; (3) peptide was added immediately following the 30 minutes NMDA exposure; (4) no peptide, NMDA exposure; (5) no peptide, no NMDA exposure. […]

The test system is the same in assay [5]. Kind of assay: NMDA-induced 45Ca uptake by primary neuronal-glial cultures. Type of assay: cell-based. As to conditions: 6 μM peptide, 100 μM NMDA. As for the experimental part:
as §2
Cellular calcium uptake from the extracellular space was assessed using ^45CaCl2 (American Radiolabeled Chemicals, St. Louis, Mo.). After washing the cultures with Mg^2+-free BSS containing 20 mM HEPES buffer, 6 μM peptide or 10 μM MK-801 was added to each well prior to and removed at the end of 100 μM NMDA exposure. ^45Ca (0.28 μCi/ml, 0.9 μCi/well) was added to each well immediately prior to NMDA exposure. The cultures were returned to the incubator and maintained at 37° C. Twenty minutes later, the exposure medium was removed and each well was washed 3 times with ice-cold Mg^2+-free BSS containing 20 mM HEPES buffer. The cells were subsequently lysed by addition of 0.2% sodium dodecyl sulfate (SDS). An aliquot from each well was added to a liquid scintillation vial containing 10 ml Cytoscint™ (ICN, Biochemical Research Product, CA) and radioactivity was determined by scintillation counting and normalized to cell count.

Entries after “also recorded” stand apart in the source; their conditions may differ.

“apoE: Example 10: human recombinant apoE2 obtained commercially from Panvera Corp”: in assay [1], the “cells examined showing increase in [Ca2+]i” value is on record as 70-80%, the “concentration dependence of [Ca2+]i increase” value is given as “dose-dependent” and the “increase in [Ca2+]i levels compared to buffer” value is 2-4 fold. The “[Ca2+]i level in treated cells, typical experiment” value in assay [1] (unstimulated cells 95.33±7.37 nM) amounted to 180.25 ± 14.57 nM. The “increase in IP3 levels” value in assay [2] is 1.5-2.0 fold. The “concentration dependence of IP3 increase” value in assay [2] (stimulated 60 s) is recorded as “dose-dependent”. In assay [3], the “[Ca2+]i response on repeated or sequential ligand exposure (desensitization)” value is “marked attenuation in [Ca^2+]i suggesting tachyphylaxis; also recorded: loss of [Ca^2+]i response to apoE addition following initial exposure to peptide”.
As for “scrambled control peptide: Example 10: scrambled control of identical size and amino acid composition to the 20 amino acid ApoE mimetic peptide (Ac-LARKLRSRLVHLRLKLR-NH2) [reference compound]”, the “increase in [Ca2+]i levels compared to buffer” value in assay [1] is “no effect”. In addition, the “[Ca2+]i response on repeated or sequential ligand exposure (desensitization)” value in assay [3] was “No desensitization in calcium response”. The “protection against NMDA toxicity (LDH release), dose response” value in assay [4] is recorded as “no protection was observed”. In assay [5], the “NMDA-induced calcium influx compared to NMDA alone” value is listed as “no effect on calcium influx”.
